The text below walks through data of US9113629B2, “4-amino-6-(4-substituted-phenyl)-picolinates and 6-amino-2-(4-substituted-phenyl)-pyrimidine-4-carboxylates and their use as herbicides” (DOW AGROSCIENCES LLC, priority 2013, dated 2015).

Experiment in all cases: Pre-emergent Test III, preemergent activity in wheat and barley
The test system of one assay is LAMSS. Format: in vivo. As to conditions: for GR50 LAMSS / GR80 LAMSS: 21 days after application, probit analysis; for GR50 LAMSS: dose to kill or control 50%; for GR80 LAMSS: dose to kill or control 80%. How it is done: (§1) Pre-emergent Test III. Seeds of test species were planted into square plastic pots (10 cm wide) containing sandy loam soil. After planting, all pots were sub-irrigated 16 h prior to compound application. A weighed amount, determined by the highest rate to be tested, of each test compound was placed in a 25 mL glass vial and was dissolved in 4 mL of a 97:3 v/v mixture of acetone and DMSO to obtain concentrated stock solutions. […] The concentrated stock solutions obtained were diluted with 20 mL of an aqueous mixture containing water and 0.02% w/v (weight/volume) of Triton X-155 to obtain spray solutions containing the highest application rates. Additional application rates were obtained by serial dilution of 12 mL of the high rate solution into a solution containing 2 mL of 97:3 v/v mixture of acetone and DMSO and 10 mL of an aqueous mixture containing water and 0.02% w/v (weight/volume) of Triton X-155 to obtain 1⁄2×, 1⁄4×, 1⁄8× and 1/16× rates of the high rate. Compound requirements are based upon a 12 mL application volume at a rate of 187 liters per hectare (L/ha). Formulated compounds were applied to the soil surface with an overhead Mandel track sprayer equipped with […] nozzles calibrated to deliver 187 L/ha over an application area of 0.503 square meters. Control pots were sprayed in the same manner with the solvent blank. The treated pots and control pots were placed in a greenhouse as described above and watered through surface irrigation. After 21 d, the condition of the test pots as compared with that of the untreated pots was determined visually and scored on a scale of 0 to 100 percent where 0 corresponds to no herbicidal effect and 100 corresponds to plant death or lack of emergence from the soil. By applying the well-accepted probit analysis as described by J. Berkson in Journal of the American Statistical Society, 48, 565 (1953) and by D. Finney in “Probit Analysis” Cambridge University Press (1952), the above data can be used to calculate GR20, GR50, GR80 and GR90 values, which are defined as growth reduction factors that correspond to the effective dose of herbicide required to kill or control 20 percent, 50 percent, 80 percent or 90 percent, respectively, of a target plant.

A further assay deals with APESV. The class given is in vivo, Apera spica-venti. As to conditions: for GR50 APESV / GR80 APESV: 21 days after application, probit analysis; for GR50 APESV: dose to kill or control 50%; for GR80 APESV: dose to kill or control 80%. As for the experimental part:
as §1

For another assay, the system named is LOLSS. The class given is in vivo, Lolium multiflorum, Lolium rigidum. As to conditions: for GR50 LOLSS / GR80 LOLSS: 21 days after application, probit analysis; for GR50 LOLSS: dose to kill or control 50%; for GR80 LOLSS: dose to kill or control 80%. As for the experimental part:
as §1

The next assay concerns HORSS. Format: in vivo, Hordeum vulgare. As to conditions: for GR20 HORSS: 21 days after application, dose to kill or control 20%, probit analysis. As for the experimental part:
as §1

The next assay has as its system TRZSS. Format: in vivo, Triticum aestivum. As to conditions: for GR20 TRZSS: 21 days after application, dose to kill or control 20%, probit analysis. How it is done: as §1
Another assay deals with SETVI. Format: in vivo, Setaria viridis. As to conditions: for GR50 SETVI / GR80 SETVI: 21 days after application, probit analysis; for GR50 SETVI: dose to kill or control 50%; for GR80 SETVI: dose to kill or control 80%. As for the experimental part:
as §1

Turning to `Nc1c(F)c(-c2ccc(Br)cc2)nc(C(=O)O)c1Cl` [Compound 20], the “Visual Growth Reduction (%) 21 Days After Application, LAMSS” value in the assay with LAMSS (35 g ai/ha) and in the assay on LAMSS (70 g ai/ha) was “A (95-100)” each time. Moreover, the “GR50 LAMSS” value with LAMSS is 6 g ai/ha. Also, the “GR80 LAMSS” value in the assay with LAMSS came out at 9 g ai/ha. Also, the “Visual Growth Reduction (%) 21 Days After Application, APESV” value with APESV (35 g ai/ha) and in the assay with APESV (70 g ai/ha) was “A (95-100)” each time. Further, in the assay with APESV, the “GR50 APESV” value is given as 6 g ai/ha. Further, in the assay with APESV, the “GR80 APESV” value was determined as 16 g ai/ha. For the same compound, the “Visual Growth Reduction (%) 21 Days After Application, LOLSS” value in the assay with LOLSS (35 g ai/ha) was “G (0-29)”; with LOLSS (70 g ai/ha), “E (45-59)”. Also, the “GR50 LOLSS” value in the assay on LOLSS is given as greater than 70 g ai/ha. Also, the “GR80 LOLSS” value in the assay with LOLSS is given as greater than 70 g ai/ha. For the same compound, the “Visual Growth Reduction (%) 21 Days After Application, HORSS” value with HORSS (35 g ai/ha) is on record as “F (30-44)”; with HORSS (70 g ai/ha), “E (45-59)”. The “GR20 HORSS” value in the assay on HORSS stood at 17 g ai/ha. The “Visual Growth Reduction (%) 21 Days After Application, TRZSS” value in the assay on TRZSS (35 g ai/ha) and in the assay with TRZSS (70 g ai/ha) was “E (45-59)” each time. The “GR20 TRZSS” value in the assay with TRZSS was found to be 10 g ai/ha. Also, the “Visual Growth Reduction (%) 21 Days After Application, SETVI” value is reported as “F (30-44)” in the assay on SETVI (35 g ai/ha) and “B (85-94)” in the assay on SETVI (70 g ai/ha). The “GR50 SETVI” value in the assay on SETVI amounted to 32 g ai/ha. Moreover, the “GR80 SETVI” value in the assay on SETVI was 71 g ai/ha.
Consider `Nc1c(F)c(-c2cc(F)c(Br)cc2F)nc(C(=O)O)c1Cl` [Compound 42, 4-amino-6-(4-bromo-2,5-difluorophenyl)-3-chloro-5-fluoropicolinic acid], for which the “Visual Growth Reduction (%) 21 Days After Application, LAMSS” value in the assay with LAMSS (35 g ai/ha) and in the assay with LAMSS (70 g ai/ha) was “A (95-100)” each time. In addition, in the assay with LAMSS, the “GR50 LAMSS” value is reported as 1 g ai/ha. Besides, the “GR80 LAMSS” value in the assay on LAMSS is listed as 1 g ai/ha. The “Visual Growth Reduction (%) 21 Days After Application, APESV” value with APESV (35 g ai/ha) is “B (85-94)”; with APESV (70 g ai/ha) it was “A (95-100)”. Further, the “GR50 APESV” value in the assay on APESV turned out to be 12 g ai/ha. Further, in the assay with APESV, the “GR80 APESV” value turned out to be 27 g ai/ha. Besides, the “Visual Growth Reduction (%) 21 Days After Application, LOLSS” value in the assay on LOLSS (35 g ai/ha) and with LOLSS (70 g ai/ha) was “G (0-29)” in each case. Also, in the assay on LOLSS, the “GR50 LOLSS” value is given as greater than 70 g ai/ha. Moreover, in the assay with LOLSS, the “GR80 LOLSS” value is greater than 70 g ai/ha. In addition, the figures for the “Visual Growth Reduction (%) 21 Days After Application, HORSS” value with HORSS (35 g ai/ha) and in the assay on HORSS (70 g ai/ha) were “F (30-44)” and “E (45-59)”, respectively. Also, the “GR20 HORSS” value with HORSS amounted to 11 g ai/ha. Moreover, the “Visual Growth Reduction (%) 21 Days After Application, TRZSS” value with TRZSS (35 g ai/ha) and in the assay with TRZSS (70 g ai/ha) was “E (45-59)” each time. In the assay with TRZSS, the “GR20 TRZSS” value is 5 g ai/ha. The “Visual Growth Reduction (%) 21 Days After Application, SETVI” value in the assay on SETVI (35 g ai/ha) is reported as “E (45-59)”; in the assay on SETVI (70 g ai/ha) it was “D (60-74)”. For the same compound, the “GR50 SETVI” value in the assay on SETVI is on record as 36 g ai/ha. For the same compound, the “GR80 SETVI” value in the assay with SETVI was greater than 70 g ai/ha.
On to `Nc1c(F)c(-c2ccc(Br)c(F)c2F)nc(C(=O)O)c1Cl` [Compound 147], for which the “Visual Growth Reduction (%) 21 Days After Application, LAMSS” value in the assay with LAMSS (35 g ai/ha) and in the assay on LAMSS (70 g ai/ha) was “A (95-100)” throughout. Further, the “GR50 LAMSS” value in the assay on LAMSS was found to be 1 g ai/ha. Besides, in the assay on LAMSS, the “GR80 LAMSS” value came out at 5 g ai/ha. For the same compound, the “Visual Growth Reduction (%) 21 Days After Application, APESV” value with APESV (35 g ai/ha) is “C (75-84)”; in the assay with APESV (70 g ai/ha), “B (85-94)”. For the same compound, in the assay with APESV, the “GR50 APESV” value is recorded as 19 g ai/ha. In addition, the “GR80 APESV” value with APESV is 33 g ai/ha. The “Visual Growth Reduction (%) 21 Days After Application, LOLSS” value with LOLSS (35 g ai/ha) and in the assay with LOLSS (70 g ai/ha) was “G (0-29)” each time. Moreover, in the assay with LOLSS, the “GR50 LOLSS” value came to 52 g ai/ha. For the same compound, in the assay with LOLSS, the “GR80 LOLSS” value was greater than 70 g ai/ha. For the same compound, the “Visual Growth Reduction (%) 21 Days After Application, HORSS” value with HORSS (35 g ai/ha) and in the assay with HORSS (70 g ai/ha) was “G (0-29)” in each case. Besides, the “GR20 HORSS” value in the assay with HORSS is 70 g ai/ha. Moreover, the “Visual Growth Reduction (%) 21 Days After Application, TRZSS” value in the assay on TRZSS (35 g ai/ha) and in the assay with TRZSS (70 g ai/ha) was “F (30-44)” each time. Moreover, in the assay on TRZSS, the “GR20 TRZSS” value was determined as 23 g ai/ha. Besides, the entries for the “Visual Growth Reduction (%) 21 Days After Application, SETVI” value in the assay on SETVI (35 g ai/ha) and with SETVI (70 g ai/ha) were “E (45-59)” and “C (75-84)”, respectively. Besides, the “GR50 SETVI” value in the assay with SETVI stood at 17 g ai/ha. The “GR80 SETVI” value in the assay with SETVI is greater than 70 g ai/ha.
As for `C=Cc1c(C(=O)O)nc(-c2ccc(Cl)c(F)c2)c(F)c1N` [Compound 214], the “Visual Growth Reduction (%) 21 Days After Application, LAMSS” value with LAMSS (35 g ai/ha) and in the assay on LAMSS (70 g ai/ha) was “A (95-100)” throughout. Besides, the “GR50 LAMSS” value in the assay on LAMSS is listed as 1 g ai/ha. For the same compound, in the assay with LAMSS, the “GR80 LAMSS” value was determined as 2 g ai/ha. Further, the results for the “Visual Growth Reduction (%) 21 Days After Application, APESV” value in the assay on APESV (35 g ai/ha) and with APESV (70 g ai/ha) were “C (75-84)” and “A (95-100)”, respectively. Moreover, the “GR50 APESV” value in the assay with APESV came out at 13 g ai/ha. The “GR80 APESV” value with APESV is reported as 28 g ai/ha. The “Visual Growth Reduction (%) 21 Days After Application, LOLSS” value was “G (0-29)” in the assay with LOLSS (35 g ai/ha) and “E (45-59)” with LOLSS (70 g ai/ha). In the assay with LOLSS, the “GR50 LOLSS” value is listed as greater than 70 g ai/ha. Also, the “GR80 LOLSS” value in the assay on LOLSS is reported as greater than 70 g ai/ha. Besides, the “Visual Growth Reduction (%) 21 Days After Application, HORSS” value in the assay on HORSS (35 g ai/ha) and in the assay on HORSS (70 g ai/ha) was “G (0-29)” throughout. Moreover, the “GR20 HORSS” value in the assay on HORSS is on record as 93 g ai/ha. Besides, the “Visual Growth Reduction (%) 21 Days After Application, TRZSS” value in the assay with TRZSS (35 g ai/ha) is “G (0-29)”; with TRZSS (70 g ai/ha), “F (30-44)”. In addition, the “GR20 TRZSS” value in the assay on TRZSS was 28 g ai/ha. Further, the “Visual Growth Reduction (%) 21 Days After Application, SETVI” value with SETVI (35 g ai/ha) and in the assay on SETVI (70 g ai/ha) was “G (0-29)” each time. In addition, the “GR50 SETVI” value in the assay on SETVI is greater than 70 g ai/ha. In the assay with SETVI, the “GR80 SETVI” value is given as greater than 70 g ai/ha.
